Reference: paper PMC9841532, “Exploring the Effect of Halogenation in a Series of Potent and Selective A2B Adenosine Receptor Antagonists” (Journal of Medicinal Chemistry, 2022)
Read-outs that look alike come from different tables or passages of the source.

Columns and labels:
hA1AR = target: T1, hA1AR (Homo sapiens, UniProt P30542); assay: Radioligand binding competition, [3H]DPCPX, membranes from CHO-A1 cells; conditions: 1 μM, [3H]DPCPX, human CHO cells, n = 2
T1 sequence (P30542 1-326): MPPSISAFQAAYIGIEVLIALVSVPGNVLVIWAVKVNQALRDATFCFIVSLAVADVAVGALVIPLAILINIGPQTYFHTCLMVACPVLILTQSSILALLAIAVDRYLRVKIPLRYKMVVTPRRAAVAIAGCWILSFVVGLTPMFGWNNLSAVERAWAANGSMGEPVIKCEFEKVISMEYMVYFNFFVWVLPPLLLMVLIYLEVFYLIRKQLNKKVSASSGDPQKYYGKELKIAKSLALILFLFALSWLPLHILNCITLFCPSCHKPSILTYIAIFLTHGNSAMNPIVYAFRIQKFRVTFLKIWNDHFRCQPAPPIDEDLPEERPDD
Method: (§1) All ligands reported in Tables 1–5 were obtained and tested as racemic mixtures. The whole set was evaluated in silico with a combination of a Rdkit[37] PAINS filter and Instant JChem from Chemaxon (https://www.chemaxon.com), to rule out the possibility that these ligands can be promiscuous pan-assay interference compounds (PAINS) and to assess their bioavailability, respectively. […] The stereoisomers of selected compounds were obtained by chiral resolution and tested at the four human AR subtypes in their enantiopure forms (Table 6).
(§2) A brief description is given below. […] Non-specific binding was determined in the presence of 10 μM R-PIA. The reaction mixture was incubated at 25 °C for 60 min. […] The reaction mixture was incubated at 25 °C for 30 min. […] The reaction mixture was incubated at 25 °C for 30 min. […] Non-specific binding was determined in the presence of 100 μM R-PIA. […] After the incubation time, membranes were washed and filtered and radioactivity was detected in a MicroBeta TriLux reader (PerkinElmer).

hA3AR = target: T2, hA3AR (Homo sapiens, UniProt P0DMS8); assay: Radioligand binding competition, [3H]NECA, membranes from HeLa-A3 cells; conditions: 1 μM, [3H]NECA, human HeLa cells, n = 2
T2 construct: expressed in transfected cells; host or cells: HeLa (HeLa-A3) cell membranes
T2 sequence (P0DMS8 1-318): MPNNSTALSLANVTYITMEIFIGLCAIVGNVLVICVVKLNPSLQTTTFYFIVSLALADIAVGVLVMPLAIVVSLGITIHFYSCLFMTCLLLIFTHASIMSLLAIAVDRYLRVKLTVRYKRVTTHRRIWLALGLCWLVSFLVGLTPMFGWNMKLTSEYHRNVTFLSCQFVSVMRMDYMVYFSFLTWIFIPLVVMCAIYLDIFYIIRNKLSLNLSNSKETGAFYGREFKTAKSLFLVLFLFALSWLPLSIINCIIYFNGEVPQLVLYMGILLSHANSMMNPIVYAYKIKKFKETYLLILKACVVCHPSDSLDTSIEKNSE
Method: as §1, §2

hA2AAR = target: T3, hA2AAR (Homo sapiens, UniProt P29274); assay: Radioligand binding competition, [3H]ZM241385, membranes from HeLa-A2A cells; conditions: 1 μM, [3H]ZM241385, human HeLa cells, n = 2
T3 construct: expressed in transfected cells; host or cells: HeLa (HeLa-A2A) cell membranes
Method: as §1, §2

hA2BAR = target: T4, hA2BAR (Homo sapiens, UniProt P29275); assay: Radioligand binding competition, [3H]DPCPX, membranes from HEK-293-A2B cells; design: Exp. dG: unit not given here; conditions: for % at 1 μM hA2B (percentage displacement of specific binding): [3H]DPCPX, human HEK-293 cells, n = 2; for Ki: read-out: Ki hA2B; for Exp. dG: experimental binding free energy, Supplementary Table S3, unit not given (errors in kcal/mol)
T4 construct: host or cells: HEK-293 (HEK-293-A2B) cell membranes
T4 sequence (P29275 1-332): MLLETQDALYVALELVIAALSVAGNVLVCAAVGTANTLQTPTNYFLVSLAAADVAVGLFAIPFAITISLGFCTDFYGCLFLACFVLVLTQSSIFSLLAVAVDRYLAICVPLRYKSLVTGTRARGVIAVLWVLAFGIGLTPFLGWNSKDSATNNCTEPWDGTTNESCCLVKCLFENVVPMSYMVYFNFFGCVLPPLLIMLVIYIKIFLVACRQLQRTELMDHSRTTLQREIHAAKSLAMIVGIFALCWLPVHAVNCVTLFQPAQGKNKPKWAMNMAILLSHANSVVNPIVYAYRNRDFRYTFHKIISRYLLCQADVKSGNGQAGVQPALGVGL
Method: as §1, §2

[1] = displacement of specific [3H]DPCPX binding in human HEK-293 cells, n = 3

T3 sequence (P29274 whole entry): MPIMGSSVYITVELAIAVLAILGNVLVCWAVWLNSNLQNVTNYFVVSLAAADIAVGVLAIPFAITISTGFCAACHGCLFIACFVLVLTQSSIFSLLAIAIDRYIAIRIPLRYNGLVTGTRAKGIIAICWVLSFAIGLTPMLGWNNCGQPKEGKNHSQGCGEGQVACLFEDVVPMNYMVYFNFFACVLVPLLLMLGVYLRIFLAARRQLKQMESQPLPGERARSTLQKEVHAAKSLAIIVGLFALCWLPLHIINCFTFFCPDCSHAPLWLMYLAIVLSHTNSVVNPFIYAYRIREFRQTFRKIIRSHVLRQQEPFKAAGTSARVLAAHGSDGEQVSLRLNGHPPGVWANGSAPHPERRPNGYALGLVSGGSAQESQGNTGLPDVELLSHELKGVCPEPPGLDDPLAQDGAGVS

SMILES | % at 1 μM hA1 (percentage displacement of specific binding) (hA1AR) [%] | % at 1 μM hA3 (percentage displacement of specific binding) (hA3AR) [%] | % at 1 μM hA2A (percentage displacement of specific binding) (hA2AAR) [%] | % at 1 μM hA2B (percentage displacement of specific binding) (hA2BAR) [%] | Ki (hA2BAR; [1]) [µM] | Exp. dG (hA2BAR) | Ki (hA2BAR) [µM]
CC1=C(C(=O)OC(C)C)C(c2ccoc2)n2c(nc3cc(Br)c(Br)cc32)N1 (stereo not shown) [14t] | 1 | 9 | 1 | 32 | – | – | –
CCOC(=O)C1=C(C)Nc2nc3cc(Br)c(Br)cc3n2C1c1cccs1 (stereo not shown) [14u] | 2 | 5 | 7 | 12 | – | – | –
CC1=C(C(=O)OC(C)C)C(c2cccs2)n2c(nc3cc(Br)c(Br)cc32)N1 (stereo not shown) [14v] | 1 | 3 | 1 | 9 | – | – | –
CCOC(=O)C1=C(C)Nc2nc3cc(Br)c(Br)cc3n2C1c1ccsc1 (stereo not shown) [14w] | 2 | 4 | 7 | 47 | – | – | –
CC1=C(C(=O)OC(C)C)C(c2ccsc2)n2c(nc3cc(Br)c(Br)cc32)N1 (stereo not shown) [14x] | 4 | 8 | 1 | 9 | – | – | –
CCOC(=O)C1=C(C)Nc2nc3ccc(F)cc3n2C1c1ccco1 (stereo not shown) [15a] | 16 | 10 | 2 | – | 0.0675 ± 0.0031 | -9.777 | –
CC1=C(C(=O)OC(C)C)C(c2ccco2)n2c(nc3ccc(F)cc32)N1 (stereo not shown) [15b] | 32 | 5 | 3 | – | 0.0122 ± 0.0012 | -10.79 | –
CCOC(=O)C1=C(C)Nc2nc3ccc(F)cc3n2C1c1ccoc1 (stereo not shown) [15c] | 26 | 5 | 21 | – | 0.025 ± 0.0015 | -9.361 | –
CC1=C(C(=O)OC(C)C)C(c2ccoc2)n2c(nc3ccc(F)cc32)N1 (stereo not shown) [15d] | 25 | 6 | 11 | – | 0.136 ± 0.007 | -10.36 | –
CCOC(=O)C1=C(C)Nc2nc3ccc(F)cc3n2C1c1cccs1 (stereo not shown) [15e] | 25 | 11 | 1 | 37 | – | – | –
CC1=C(C(=O)OC(C)C)C(c2cccs2)n2c(nc3ccc(F)cc32)N1 (stereo not shown) [15f] | 11 | 6 | 2 | 23 | – | – | –
CCOC(=O)C1=C(C)Nc2nc3ccc(F)cc3n2C1c1ccsc1 (stereo not shown) [15g] | 7 | 3 | 1 | – | 1.03 ± 0.095 | -8.162 | –
CC1=C(C(=O)OC(C)C)C(c2ccsc2)n2c(nc3ccc(F)cc32)N1 (stereo not shown) [15h] | 1 | 1 | 1 | – | 0.764 ± 0.011 | -8.34 | –
CCOC(=O)C1=C(C)Nc2nc3ccc(Cl)cc3n2C1c1ccco1 (stereo not shown) [15i] | 26 | 4 | 2 | 18 | – | – | –
CCOC(=O)C1=C(C)Nc2nc3ccc(Cl)cc3n2C1c1ccoc1 (stereo not shown) [15k] | 22 | 3 | 30 | – | 0.0473 ± 0.0019 | -9.987 | ~0.045
CC1=C(C(=O)OC(C)C)C(c2ccoc2)n2c(nc3ccc(Cl)cc32)N1 (stereo not shown) [15l] | 6 | 3 | 4 | 50 | – | – | –
CCOC(=O)C1=C(C)Nc2nc3ccc(Cl)cc3n2C1c1cccs1 (stereo not shown) [15m] | 2 | 1 | 3 | 1 | – | – | –
CC1=C(C(=O)OC(C)C)C(c2cccs2)n2c(nc3ccc(Cl)cc32)N1 (stereo not shown) [15n] | 1 | 1 | 3 | 7 | – | – | –
CCOC(=O)C1=C(C)Nc2nc3ccc(Cl)cc3n2C1c1ccsc1 (stereo not shown) [15o] | 4 | 3 | 2 | 50 | – | – | –
CC1=C(C(=O)OC(C)C)C(c2ccsc2)n2c(nc3ccc(Cl)cc32)N1 (stereo not shown) [15p] | 7 | 3 | 9 | 48 | – | – | –
CCOC(=O)C1=C(C)Nc2nc3ccc(Br)cc3n2C1c1ccco1 (stereo not shown) [15q] | 22 | 5 | 21 | 48 | – | – | –
CC1=C(C(=O)OC(C)C)C(c2ccco2)n2c(nc3ccc(Br)cc32)N1 (stereo not shown) [15r] | 46 | 6 | 1 | – | 0.273 ± 0.004 | – | ~0.045
